Experimental data taken from paper PMC9804781, “Identification of a Novel Pseudo‐Natural Product Type IV IDO1 Inhibitor Chemotype” (Angewandte Chemie (International Ed. in English), 2022).

Target: IDO1 (Homo sapiens, UniProt P14902)
Assay: Kyn assay in IDO1-HEK293T cells (CMV promoter)
Assay type: cell-based
Design: host or cells: HEK293T
Conditions: absence of IFN-γ; L-Trp, 24 h; p-DMAB
Protocol: page 80: temperature and centrifuged for 10 min at 1800 x g. Afterwards, an equal volume of freshly prepared 2% (w/v) p-DMAB in glacial acetic acid (Ehrlich reagent) was added prior to measuring the absorbance at 492 nm and 650 nm on the Spark® Multimode Microplate Reader (Tecan, AT). To determine the Kyn levels, the absorbance of the Kyn-p-DMAB adduct […] was subtracted by the background absorbance A650 and normalized to the DMSO control. Data analysis was performed using a non-linear regression curve fit and GraphPad Prism 9.0 (GraphPad Software, Inc, US) to generate dose-response curves and obtain IC50 values. […] Afterwards, an equal volume of freshly prepared 2% (w/v) p-DMAB in glacial acetic acid (Ehrlich reagent) was added prior to measuring the absorbance at 492 nm and 650 nm on the Spark® Multimode Microplate Reader (Tecan, AT). To determine the Kyn levels, the absorbance of the Kyn-p-DMAB adduct […] was subtracted by the background absorbance A650 and normalized to the DMSO control. […] Afterwards, an equal volume of freshly prepared 2% (w/v) p-DMAB in glacial acetic acid (Ehrlich reagent) was added prior to measuring absorbance at 492 nm and 650 nm on the Spark® Multimode Microplate Reader (Tecan, AT). To determine the Kyn levels, the absorbance of the Kyn-p-DMAB adduct […] was subtracted by the background absorbance A650 and normalized to the DMSO control. […]

IDO1, sequence (P14902 whole entry): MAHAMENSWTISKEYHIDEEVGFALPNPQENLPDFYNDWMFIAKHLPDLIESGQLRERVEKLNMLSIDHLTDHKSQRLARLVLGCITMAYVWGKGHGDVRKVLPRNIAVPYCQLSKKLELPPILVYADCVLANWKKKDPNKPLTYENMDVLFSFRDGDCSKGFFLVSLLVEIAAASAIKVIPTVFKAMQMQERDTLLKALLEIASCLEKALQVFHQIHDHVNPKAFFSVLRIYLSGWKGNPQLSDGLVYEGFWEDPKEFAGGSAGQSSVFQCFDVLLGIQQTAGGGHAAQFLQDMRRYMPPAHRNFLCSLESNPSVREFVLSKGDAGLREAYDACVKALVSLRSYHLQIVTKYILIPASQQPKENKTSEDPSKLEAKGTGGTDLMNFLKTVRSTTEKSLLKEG

Kyn production in HEK293T cells transiently expressing IDO1: inhibited Kyn production
SMILES: CCOC(=O)C1=CC[C@](C(=O)OC)(c2cc3ccccc3n2C)N(S(=O)(=O)c2ccc(C)cc2)[C@@H]1C(=O)OC(C)(C)C [Compound 3d]
